Experimental data taken from US8716263B2, “Synthesis of purine nucleosides” (Gilead Pharmasset LLC, priority 2008, dated 2014).
Read-outs that look alike come from different tables or passages of the source.

Tested on: HCV replicon RNA-containing Huh7 cells (clone A cells)
Assay: HCV replicon assay
Format: cell-based
Conditions: read-out: CloneA EC90
Procedure: HCV replicon assay. HCV replicon RNA-containing Huh7 cells (clone A cells; Apath, LLC, St. Louis, Mo.) were kept at exponential growth in Dulbecco's modified Eagle's medium (high glucose) containing 10% fetal bovine serum, 4 mM L-glutamine and 1 mM sodium pyruvate, 1×nonessential amino acids, and G418 (1,000 μg/m1). Antiviral assays were performed in the same medium without G418. Cells were seeded in a 96-well plate at 1,500 cells per well, and test compounds were added immediately after seeding. Incubation time 4 days. At the end of the incubation step, total cellular RNA was isolated (RNeasy 96 kit; Qiagen). Replicon RNA and an internal control (TaqMan rRNA control reagents; Applied Biosystems) were amplified in a single-step multiplex RT-PCR protocol as recommended by the manufacturer. The HCV primers and probe were designed with Primer Express software (Applied Biosystems) and covered highly conserved 5′-untranslated region (UTR) sequences (sense, 5′-AGCCATGGCGTTAGTA(T)GAGTGT-3′ (SEQ ID NO: 1), and antisense, 5′-TTCCGCAGACCACTATGG-3′ (SEQ ID NO: 2); probe, 5′-FAM-[…]-TAMRA-3′ SEQ ID NO: 3)).
To express the antiviral effectiveness of a compound, the threshold RT-PCR cycle of the test compound was subtracted from the average threshold RT-PCR cycle of the no-drug control (ΔCtHCV). A ΔCt of 3.3 equals a 1-log 10 reduction (equal to the 90% effective concentration [EC90]) in replicon RNA levels. The cytotoxicity of the test compound could also be expressed by calculating the ΔCtrRNA values. The ΔΔCt specificity parameter could then be introduced (ΔCtHCV−ΔCtrRNA) in which the levels of HCV RNA are normalized for the rRNA levels and calibrated against the no-drug control.

[1] = clone A Huh7 replicon cells, incubation time 4 days, replicon RNA by RT-PCR, ΔCt of 3.3 = 1-log 10 reduction = EC90

For `COc1nc(N)nc2c1ncn2[C@@H]1O[C@H](COP(=O)(N[C@@H](C)C(=O)OC(C)C)Oc2ccccc2)[C@@H](O)[C@@]1(C)F` (stereo partly drawn) [Compound 11, (2S)-isopropyl 2-((((2R,3R,4R,5R)-5-(2-amino-6-methoxy-9H-purin-9-yl)-4-fluoro-3-hydroxy-4-methyltetrahydrofuran-2-yl)methoxy) (phenoxy)phosphorylamino)propanoate], which EC90 (Hepatitis C virus, Huh-7, 96 h) is on record?
The EC90 was 20 nM.

For `COC(=O)[C@H](C)NP(=O)(OC[C@H]1O[C@@H](n2cnc3c(N4CCC4)nc(N)nc32)[C@](C)(F)[C@@H]1O)Oc1ccccc1` (stereo partly drawn) [Compound 12], which EC90 [1] is on record?
Its EC90 is 70 nM.

Which EC90 (Hepatitis C virus, Huh-7, 96 h) does the source give for `C[C@H](NP(=O)(OC[C@H]1O[C@@H](n2cnc3c(O)nc(N)nc32)[C@](C)(F)[C@@H]1O)Oc1ccccc1)C(=O)OC1CCCC1` (stereo partly drawn) [Compound 14, (2S)-cyclopentyl 2-((((2R,3R,4R,5R)-5-(2-amino-6-hydroxy-9H-purin-9-yl)-4-fluoro-3-hydroxy-4-methyltetrahydrofuran-2-yl)methoxy)(phenoxy)phosphorylamino)propanoate] here?
Its EC90 is 130 nM.

How did the EC90 (Hepatitis C virus, Huh-7, 96 h) turn out when `COP1(=O)OC[C@H]2O[C@@H](n3cnc4c(N5CCC5)nc(N)nc43)[C@](C)(F)[C@@H]2O1` (stereo partly drawn) [Compound 15, 6-Azetidin-1-yl-9-((4aR,6R,7R,7aR)-7-fluoro-2-methoxy-7-methyl-2-oxo-tetrahydrofuro[3,2-d][1,3,2]dioxaphosphinin-6-yl)-9H-purin-2-ylamine] was run?
Its EC90 is 710 nM.

For `COc1nc(N)nc2c1ncn2[C@@H]1O[C@@H]2CO[P@](=O)(OC3CCC3)O[C@H]2[C@@]1(C)F` [Compound 23, 6-Methoxy-9-((2R,4aR,6R,7R,7aR)-7-fluoro-2-cyclobutoxy-7-methyl-2-oxo-tetrahydro-2λ^5-furo[3,2-d][1,3,2]dioxaphosphinin-6-yl)-9H-purin-2-ylamine], which EC90 (Hepatitis C virus, Huh-7, 96 h, clone A Huh7 replicon cells, incubation time 4 days, replicon RNA by RT-PCR, ΔCt of 3.3 = 1-log 10 reduction = EC90) is on record?
The EC90 was 130 nM.

For `COc1nc(N)nc2c1ncn2[C@@H]1O[C@@H]2CO[P@](=O)(OC3CCCC3)O[C@H]2[C@@]1(C)F` [Compound 24, 6-Methoxy-9-((2R,4aR,6R,7R,7aR)-7-fluoro-2-cyclopentoxy-7-methyl-2-oxo-tetrahydro-2μ^5-furo[3,2-d][1,3,2]dioxaphosphinin-6-yl)-9H-purin-2-ylamine], which EC90 [1] is on record?
The EC90 was 37 nM.
